Results taken from patent US8183262B2, “Pyridine derivatives as mGluR2 antagonists” (Hoffmann-La Roche Inc., priority 2007, dated 2012).

In the case of `NS(=O)(=O)c1ccc(-c2cc(-c3nc(-c4ccc(F)cc4)cc(C(F)(F)F)n3)ccn2)s1` [Example 397, 5-{4-[4-(4-Fluoro-phenyl)-6-trifluoromethyl-pyrimidin-2-yl]-pyridin-2-yl}-thiophene-2-sulfonic acid amide], the melting point is reported as 282 °C. For `NS(=O)(=O)c1cccc(-c2cc(-c3nc(-c4ccc(F)cc4)cc(C(F)(F)F)n3)ccn2)c1` [Example 398, 3-{4-[4-(4-Fluoro-phenyl)-6-trifluoromethyl-pyrimidin-2-yl]-pyridin-2-yl}-benzenesulfonamide], the melting point was 239.5 °C. With `NS(=O)(=O)c1ccc(-c2cc(-c3nc(-c4ccc(F)c(F)c4)cc(C(F)(F)F)n3)ccn2)s1` [Example 399, 5-{4-[4-(3,4-Difluoro-phenyl)-6-trifluoromethyl-pyrimidin-2-yl]-pyridin-2-yl}-thiophene-2-sulfonic acid amide] the melting point was 281 °C. Work on `NS(=O)(=O)c1cccc(-c2cc(-c3nc(-c4ccc(F)c(F)c4)cc(C(F)(F)F)n3)ccn2)c1` [Example 400, 3-{4-[4-(3,4-Difluoro-phenyl)-6-trifluoromethyl-pyrimidin-2-yl]-pyridin-2-yl}-benzenesulfonamide] yielded a melting point of 233.5 °C. `CN(C)S(=O)(=O)c1cccc(-c2cc(-c3nc(-c4ccc(C(F)(F)F)cc4)cc(C(F)(F)F)n3)ccn2)c1` [Example 401, N,N-Dimethyl-3-{4-[4-trifluoromethyl-6-(4-trifluoromethyl-phenyl)-pyrimidin-2-yl]-pyridin-2-yl}-benzenesulfonamide] showed a melting point of 225 °C. `CNS(=O)(=O)c1cccc(-c2cc(-c3nc(-c4ccc(C(F)(F)F)cc4)cc(C(F)(F)F)n3)ccn2)c1` [Example 402, N-Methyl-3-{4-[4-trifluoromethyl-6-(4-trifluoromethyl-phenyl)-pyrimidin-2-yl]-pyridin-2-yl}-benzenesulfonamide] showed a melting point of 174 °C. In the case of `CC(C)CN(C)S(=O)(=O)c1cccc(-c2cc(-c3nc(-c4ccc(C(F)(F)F)cc4)cc(C(F)(F)F)n3)ccn2)c1` [Example 403, N-Isobutyl-N-methyl-3-{4-[4-trifluoromethyl-6-(4-trifluoromethyl-phenyl)-pyrimidin-2-yl]-pyridin-2-yl}-benzenesulfonamide], the melting point is reported as 144 °C. Work on `CCCN(C)S(=O)(=O)c1cccc(-c2cc(-c3nc(-c4ccc(C(F)(F)F)cc4)cc(C(F)(F)F)n3)ccn2)c1` [Example 404, N-Methyl-N-propyl-3-{4-[4-trifluoromethyl-6-(4-trifluoromethyl-phenyl)-pyrimidin-2-yl]-pyridin-2-yl}-benzenesulfonamide] yielded a melting point of 144 °C. Work on `O=S(=O)(NCc1ccccc1)c1cccc(-c2cc(-c3nc(-c4ccc(C(F)(F)F)cc4)cc(C(F)(F)F)n3)ccn2)c1` [Example 405, N-Benzyl-3-{4-[4-trifluoromethyl-6-(4-trifluoromethyl-phenyl)-pyrimidin-2-yl]-pyridin-2-yl}-benzenesulfonamide] yielded a melting point of 202.5 °C. Compound `O=S(=O)(NCCc1ccccc1)c1cccc(-c2cc(-c3nc(-c4ccc(C(F)(F)F)cc4)cc(C(F)(F)F)n3)ccn2)c1` [Example 406, N-Phenethyl-3-{4-[4-trifluoromethyl-6-(4-trifluoromethyl-phenyl)-pyrimidin-2-yl]-pyridin-2-yl}-benzenesulfonamide] has a melting point of 201 °C. With `O=S(=O)(NCC1CC1)c1cccc(-c2cc(-c3nc(-c4ccc(C(F)(F)F)cc4)cc(C(F)(F)F)n3)ccn2)c1` [Example 408, N-Cyclopropylmethyl-3-{4-[4-trifluoromethyl-6-(4-trifluoromethyl-phenyl)-pyrimidin-2-yl]-pyridin-2-yl}-benzenesulfonamide] the melting point was 133.5 °C. In the case of `O=S(=O)(NC1CC1)c1cccc(-c2cc(-c3nc(-c4ccc(C(F)(F)F)cc4)cc(C(F)(F)F)n3)ccn2)c1` [Example 409, N-Cyclopropyl-3-{4-[4-trifluoromethyl-6-(4-trifluoromethyl-phenyl)-pyrimidin-2-yl]-pyridin-2-yl}-benzenesulfonamide], the melting point is reported as 195.5 °C. For `NS(=O)(=O)c1cccc(-c2cccc(-c3nc(-c4ccc(Cl)cc4Cl)cc(C(F)(F)F)n3)c2)c1` [Example 410, 3′-[4-(2,4-Dichloro-phenyl)-6-trifluoromethyl-pyrimidin-2-yl]-biphenyl-3-sulfonic acid amide], the melting point was 202 °C. Compound `NS(=O)(=O)c1ccc(-c2cccc(-c3nc(-c4ccc(Cl)cc4Cl)cc(C(F)(F)F)n3)c2)s1` [Example 411, 5-{3-[4-(2,4-Dichloro-phenyl)-6-trifluoromethyl-pyrimidin-2-yl]-phenyl}-thiophene-2-sulfonic acid amide] has a melting point of 237.5 °C. In the case of `NS(=O)(=O)c1cccc(-c2cccc(-c3nc(-c4ccc(C(F)(F)F)cc4F)cc(C(F)(F)F)n3)c2)c1` [Example 412, 3′-[4-(2-Fluoro-4-trifluoromethyl-phenyl)-6-trifluoromethyl-pyrimidin-2-yl]-biphenyl-3-sulfonic acid amide], the melting point is reported as 224.5 °C. `NS(=O)(=O)c1ccc(-c2cccc(-c3nc(-c4ccc(C(F)(F)F)cc4F)cc(C(F)(F)F)n3)c2)s1` [Example 413, 5-{3-[4-(2-Fluoro-4-trifluoromethyl-phenyl)-6-trifluoromethyl-pyrimidin-2-yl]-phenyl}-thiophene-2-sulfonic acid amide] showed a melting point of 192 °C. With `Cc1cc(-c2cc(C(F)(F)F)nc(-c3ccnc(-c4ccc(S(N)(=O)=O)s4)c3)n2)ccc1Cl` [Example 414, 5-{4-[4-(4-Chloro-3-methyl-phenyl)-6-trifluoromethyl-pyrimidin-2-yl]-pyridin-2-yl}-thiophene-2-sulfonic acid amide] the melting point was 280 °C. `Cc1cc(-c2cc(C(F)(F)F)nc(-c3ccnc(-c4cccc(S(N)(=O)=O)c4)c3)n2)ccc1Cl` [Example 415, 3-{4-[4-(4-Chloro-3-methyl-phenyl)-6-trifluoromethyl-pyrimidin-2-yl]-pyridin-2-yl}-benzenesulfonamide] gave a melting point of 234 °C. Work on `Cc1cc(-c2ccc(C(F)(F)F)c(C)c2)nc(-c2cccc(-c3cccc(S(N)(=O)=O)c3)c2)n1` [Example 416, 3′-[4-Methyl-6-(3-methyl-4-trifluoromethyl-phenyl)-pyrimidin-2-yl]-biphenyl-3-sulfonic acid amide] yielded a melting point of 222.5 °C. For `Cc1cc(-c2ccc(C(F)(F)F)c(C)c2)nc(-c2cccc(-c3ccc(S(N)(=O)=O)s3)c2)n1` [Example 417, 5-{3-[4-Methyl-6-(3-methyl-4-trifluoromethyl-phenyl)-pyrimidin-2-yl]-phenyl}-thiophene-2-sulfonic acid amide], the melting point was 242 °C. With `Cc1cc(-c2ccc(C(F)(F)F)cc2)nc(-c2cccc(-c3cccc(S(=O)(=O)NC(C)(C)C)c3)n2)n1` [Example 418, N-tert-Butyl-3-{6-[4-methyl-6-(4-trifluoromethyl-phenyl)-pyrimidin-2-yl]-pyridin-2-yl}-benzenesulfonamide] the melting point was greater than 250 °C. With `Cc1cc(-c2ccc(C(F)(F)F)cc2)nc(-c2cccc(-c3cccc(S(N)(=O)=O)c3)n2)n1` [Example 419, 3-{6-[4-Methyl-6-(4-trifluoromethyl-phenyl)-pyrimidin-2-yl]-pyridin-2-yl}-benzenesulfonamide] the melting point was 239 °C (dec.). For `CNS(=O)(=O)c1cccc(-c2cccc(-c3cc(-c4ccc(C(F)(F)F)cc4)cc(C)n3)n2)c1` [Example 422, N-Methyl-3-[6′-methyl-4′-(4-trifluoromethyl-phenyl)-[2,2′]bipyridinyl-6-yl]-benzenesulfonamide], the melting point was 176 °C. For `Cc1cc(-c2ccc(C(F)(F)F)cc2)cc(-c2cccc(-c3cccc(S(=O)(=O)N(C)C)c3)n2)n1` [Example 423, N,N-Dimethyl-3-[6′-methyl-4′-(4-trifluoromethyl-phenyl)-[2,2′]bipyridinyl-6-yl]-benzenesulfonamide], the melting point was 155 °C. In the case of `Cc1cc(-c2ccc(C(F)(F)F)cc2)cc(-c2cccc(-c3cccc(S(=O)(=O)NC4CC4)c3)n2)n1` [Example 424, N-Cyclopropyl-3-[6′-methyl-4′-(4-trifluoromethyl-phenyl)-[2,2′]bipyridinyl-6-yl]-benzenesulfonamide], the melting point is reported as 150 °C. `Cc1cc(-c2ccc(C(F)(F)F)cc2)cc(-c2cccc(-c3cccc(S(=O)(=O)N(C)C4CC4)c3)n2)n1` [Example 425, N-Cyclopropyl-N-methyl-3-[6′-methyl-4′-(4-trifluoromethyl-phenyl)-[2,2′]bipyridinyl-6-yl]-benzenesulfonamide] showed a melting point of 157 °C. For `Cc1cc(-c2ccc(C(F)(F)F)cc2)cc(-c2cccc(-c3cccc(S(=O)(=O)N4CCC4)c3)n2)n1` [Example 426, 6′-[3-(Azetidine-1-sulfonyl)-phenyl]-6-methyl-4-(4-trifluoromethyl-phenyl)-[2,2′]bipyridinyl], the melting point was 158 °C. Compound `Cc1cc(-c2ccc(C(F)(F)F)cc2)cc(-c2cccc(-c3cccc(S(=O)(=O)N4CCC(O)CC4)c3)n2)n1` [Example 427, 1-{3-[6′-Methyl-4′-(4-trifluoromethyl-phenyl)-[2,2′]bipyridinyl-6-yl]-benzenesulfonyl}-piperidin-4-ol] has a melting point of 195 °C. With `Cc1cc(-c2ccc(C(F)(F)F)cc2)cc(-c2cccc(-c3cccc(S(=O)(=O)N4CC(O)C4)c3)n2)n1` [Example 428, 1-{3-[6′-Methyl-4′-(4-trifluoromethyl-phenyl)-[2,2′]bipyridinyl-6-yl]-benzenesulfonyl}-azetidin-3-ol] the melting point was 205 °C. `COC1CCN(S(=O)(=O)c2cccc(-c3cccc(-c4cc(-c5ccc(C(F)(F)F)cc5)cc(C)n4)n3)c2)CC1` [Example 429, 6′-[3-(4-Methoxy-piperidine-1-sulfonyl)-phenyl]-6-methyl-4-(4-trifluoromethyl-phenyl)-[2,2′]bipyridinyl] showed a melting point of 107 °C. Work on `Cc1cc(-c2ccc(C(F)(F)F)cc2)cc(-c2cccc(-c3cccc(S(=O)(=O)NCc4ccccc4)c3)n2)n1` [Example 431, N-Benzyl-3-[6′-methyl-4′-(4-trifluoromethyl-phenyl)-[2,2′]bipyridinyl-6-yl]-benzenesulfonamide] yielded a melting point of 168 °C. With `COc1ccc(CNS(=O)(=O)c2cccc(-c3cccc(-c4cc(-c5ccc(C(F)(F)F)cc5)cc(C)n4)n3)c2)cc1` [Example 432, N-(4-Methoxy-benzyl)-3-[6′-methyl-4′-(4-trifluoromethyl-phenyl)-[2,2′]bipyridinyl-6-yl]-benzenesulfonamide] the melting point was 126 °C (dec.).
